Reference: patent US12533348B2, “Ferroportin-inhibitors for the use in the treatment of transfusion-dependent beta-thalassemia (TDT)” (Vifor (International) AG, priority 2019, dated 2026)
Where “and” joins values, the source holds several entries; their conditions need not be identical. Equal entries are not always repeated. Entries after “also recorded” stand apart in the source; their conditions may differ.

Assays:
[1] = Combination study DFX/Fpn127: clinical observations, mortality and body weight; assay type: in vivo, mouse; details: for tolerability / clinical symptoms: Hbb^th3/+ mice, 17 doses in 23 days; for tolerability / clinical symptoms / BW: DFX 30 mg/kg QD, Fpn127 120 mg/kg QD p.o.; for BW: th3/+ mice, mean
Protocol: One day after switching to lid a blood sample was taken by tail vein incision to determine the baseline Hb levels. Hb was measured using a HaemoCue® device. Hb was also measured on days 8, 15, and 22 in the morning before dosing. The animals were dosed p.o. D with 30 mg/kg DFX in 30% Kolliphor, 120 mg/kg Fpn127 in 0.5% C, or both for a total of 17 doses during the 23 days of study. 30% Kolliphor and 0.5% C were dosed as vehicles. The dose of DFX was administered at the beginning of the dark cycle (active phase) at 9:00 followed by 3 h of access to lid. Then, mice were dosed with Fpn127 (or 0.5% C) and were given access to sd for a 6 h period before switched back to lid. On the dosing was paused and mi had access to lid ad libitum.
Animals and their cages were checked daily by the experimenter during the study on working days. During the experimental phase, animals were weighted minimum once per week and scored according to their clinical symptoms: BW, general behavior and activity, appearance of hair coat, eyes, and nose. Clinical observations were recorded when present on separate score sheets.
BW was recorded once before the start of the experimental phase on day −1. During the experimental phase, individual BW were recorded 1 to 2 times per week to calculate the dosing volume and to monitor weight loss.

[2] = system: Hbb^th3/+ mouse model of β-thalassemia intermedia; test: Combination study: erythroid differentiation stages in spleen by flow cytometry (Ter119/CD44/CD71); assay type: in vivo; details: for basophilic erythroblasts, frequency of parent / mature erythrocytes, frequency of parent / orthochromatic erythroblasts, frequency of parent / polychromatic erythroblasts, frequency of parent / pro-erythroblasts, frequency of parent: percent of parent Ter119+ spleen cells, female th3/+ mice, DFX 30 mg/kg QD, Fpn127 120 mg/kg QD p.o., end of study, mean
From the text: Distinct stages of erythroid cell differentiation in spleens of female mice were identified by flow cytometry (CANTOII cytometer, BD Biosciences) using PE-conjugated rat anti-mouse CD71 (transferrin receptor-1, eBioscience, Cat. 12-0711), APC-conjugated rat anti-mouse Ter119 (erythroid lineage marker, eBioscience, Cat. 17-5921) and APC-Cy7-conjugated rat anti-mouse CD44 (adhesion molecule that progressively decreases on the surface of developing erythroid cells, BioLegend. Cat. 103028) antibodies. Data were analyzed using FlowJo® software (FlowJo. LLC, version 10.1) Serum Parameters

Hbb^th3/+ mice [3] = test: Erythrocyte membrane-associated α-globin detection and quantification (TAU gel electrophoresis, densitometry); assay type: in vivo, mouse; details: Hbb^th3/+ animals vs vehicle-treated; TAU gel electrophoresis (FIG. 1)
From the text: Fresh EDTA-blood samples of mice from each group were pooled (blood from 2 mice/pool), lysed, and membrane lipids were extracted, as previously described (Sorensen S, Rubin E, Polster H, Mohandas N, Schrier S. “The role of membrane skeletal-associated alpha-globin in the pathophysiology of beta-thalassemia.” Blood. 1990 Mar. 15; 75(6):1333-6). The insoluble membrane fraction was separated by electrophoresis on triton acetic acid urea (TAU) gels and visualized by Coomassie staining (Alter B et al, Br J Haematol 44:527, 1980). The signal intensity of the α-globin bands was quantified by densitometry using LAS-4000 Image Analyzer with Multi Gauge v.3 software (GE Healthcare Life Sciences).
Blood samples are washed three times with ice cold DPBS in the presence of 1 mM EDTA and lysed in an ice-cold hypotonic lysis buffer (5 mM sodium phosphate, pH 7.6 containing Complete Ultra protease inhibitors, Roche). The soluble Hb is collected to serve as standard on the gel. The erythrocyte ghosts are further washed three times by resuspending in hypotonic lysis buffer and centrifugation at 21'000×g. Membrane lipids are extracted in 50 mM sodium borate pH 8, 1 mM EDTA, 0.5% Triton X-100 (Sigma-Aldrich) and protease inhibitors. […]

Hbb^th3/+ mice [4] = test: ROS levels in mature RBCs of Hbb^th3/+ mice, oral dosing 60 mg/kg twice daily, no BT; assay type: in vivo, mouse
[5] = Half-life of orally administered Fpn127 in rodents; details: in vivo, po
rats = test: Serum iron after a single oral dose in rats; assay type: in vivo, rat; details: single oral dose of 100 mg/kg in rats
C57BL/6 WT mice = test: Serum iron in C57BL/6 WT mice (previous study); assay type: in vivo, mouse; details: C57BL/6 WT mice dosed with 120 mg/kg for 20 h

SMILES	tolerability / clinical symptoms [1]	BW ([1]; day 1, all animals)	BW ([1]; day 1, females)	BW ([1]; day 1, males)	BW ([1]; day 3, all animals)	BW ([1]; day 3, females)	BW ([1]; day 3, males)	BW ([1]; day 7, all animals)	BW ([1]; day 7, females)	BW ([1]; day 7, males)	BW ([1]; day 10, all animals)	BW ([1]; day 10, females)	BW ([1]; day 10, males)	BW ([1]; day 14, all animals)	BW ([1]; day 14, females)	BW ([1]; day 14, males)	BW ([1]; day 17, all animals)	BW ([1]; day 17, females)	BW ([1]; day 17, males)	BW ([1]; day 22, all animals)	further results
O=C(O)c1ccc(-n2nc(-c3ccccc3O)nc2-c2ccccc2O)cc1 [DFX, deferasirox, reference compound]	generally well tolerated	21.5 g	19.2 ± 1.3 g and 19.2 g	23.7 ± 1.3 g and 23.7 g	23.2 g	20.9 g	25.6 g	23.2 g	21.0 g	25.4 g	22.9 g	20.6 g	25.2 g	23.0 g	20.7 g	25.2 g	22.8 g	20.4 g	25.2 g	23.3 g	BW by the end of the study vs vehicle treated Hbb^th3/+ mice ([1]; males): slightly but significantly lower BW; BW ([1]; day 22, females): 20.8 g; BW ([1]; day 22, males): 25.9 g; basophilic erythroblasts, frequency of parent [2]: 8.21%; mature erythrocytes, frequency of parent [2]: 32.35%; orthochromatic erythroblasts, frequency of parent [2]: 23.48%; polychromatic erythroblasts, frequency of parent [2]: 23.90%; pro-erythroblasts, frequency of parent [2]: 3.29%
O=C(NCc1ncccc1F)c1coc(CCNCCc2nc3ccccc3[nH]2)n1 [Fpn127]	generally well tolerated	22.2 g	19.4 ± 1.0 g and 19.4 g	25.1 ± 1.0 g and 25.1 g	23.6 g	20.3 g	26.9 g	23.1 g	19.8 g	26.5 g	23.4 g	20.3 g	26.5 g	23.3 g	20.2 g	26.3 g	23.2 g	19.7 g	26.6 g	23.3 g	levels of toxic α-globin/heme aggregates in RBC membrane skeleton preparations (Hbb^th3/+ mice [3]): significant dose-dependent decrease; ROS levels in RBCs (Hbb^th3/+ mice [4]; 15 days of oral dosing 60 mg/kg twice daily (FIG. 2B), 60 mg/kg): decreased ROS levels; also recorded: further decreased; ROS levels in RBCs (Hbb^th3/+ mice [4]; day 8 of oral dosing 60 mg/kg twice daily (FIG. 2A)): decreased ROS levels; effect on BW vs vehicle-treated Hbb^th3/+ mice or WT mice ([1]; males and females, once daily for the duration of the study (d22)): no effect on BW; BW ([1]; day 22, females): 19.8 g; BW ([1]; day 22, males): 26.7 g; RBC percentage in spleen ([2]; Hbbth3/+ mice (FIG. 9)): increased; percentage of immature erythroid cells in spleen ([2]; Hbbth3/+ mice (FIG. 9)): markedly reduced; basophilic erythroblasts, frequency of parent [2]: 4.94%; mature erythrocytes, frequency of parent [2]: 53.52%; orthochromatic erythroblasts, frequency of parent [2]: 14.65%; polychromatic erythroblasts, frequency of parent [2]: 9.44%; pro-erythroblasts, frequency of parent [2]: 1.74%; half-life [5]: ~2 h; duration of reduction in serum iron (rats): at least 8 h; serum iron in WT mice (C57BL/6 WT mice): restored to the baseline levels
